Data on five molecules can be found in article PMC5062114, “Dual-targeting anti-angiogenic cyclic peptides as potential drug leads for cancer therapy” (Scientific Reports, 2016).

The term IC50 denotes the concentration needed to halve the response being measured. For orientation: inhibition means the percentage by which the read-out fell short of the control. What is called fraction remaining is what is left of the initial amount, in per cent.

The subject of series [1] is HT-29. Kind of series: cells. The procedure: (§1) HUVECs (human umbilical vein endothelial cells) were cultured in EGM™-2 BulletKit™ supplemented with SingleQuots™ (supplements: growth factors, cytokines, antibiotics; Lonza) and 10% FBS (catalog no. FFBS-500; Scientifix). Both HT-29 and MCF-7 cells were cultured in 10% FBS/DMEM (Dulbecco’s Modified Eagle Medium) with 1% penicillin–streptomycin (5000 U/mL; Life Technologies), whereas PC3 cells (prostate cancer cells) were cultured in 10% FBS/RPMI (Roswell Park Memorial Institute) 1640 with 1% penicillin–streptomycin (5000 U/mL; Life Technologies). All cells were maintained at 37 °C in 5% CO2.
(§2) Cell cytotoxicity and proliferation assays were performed using similar methods to those described by Chan et al.[45]. All cells were maintained using the media conditions described above, and passages two to ten were used for all cell lines. For all cell lines, 5.0 × 10^3 cells/well (100 μL) and 1.5 × 10^3 cells/well (100 μL) were used for cell cytotoxicity and cell proliferation assays, respectively. All peptides (10 μL, at final concentrations ranging from 0.05–100 μM) and drugs, which included cilengitide, octreotide and sunitinib (at final concentrations ranging from 0.00001–100 μM), were used in both assays. Triton X-100 (0.1% (v/v); 10 μL) was used as a positive control. Cells were treated with fresh media the day after plating, before the addition of peptides, followed by a subsequent 2-h and 48-h incubation for cell cytotoxicity and cell proliferation, respectively. After different incubation periods, 3-(4, 5-dimethylthiazolyl-2)-2,5-diphenyltetrazolium bromide (MTT) (10 μL; 5 mg/mL in PBS) was added, and cells were incubated for a further 4 h. The supernatant was then removed and 100 μL DMSO added to solubilize formazan salts. Experiments were performed in triplicate. Cell numbers were recorded at 600 nm. All data represent average mean ± SD.

For series [2], the system named is HUVEC. Briefly: cells. As to the method:
as §1, §2

The test system of series [3] is MCF-7. Kind of series: cells. As to the method: as §1, §2
Series [4] relates to PC3. Briefly: cells. The procedure:
as §1, §2

The test system of series [5] is HUVEC migration. Kind of series: VEGF-mediated HUVEC transwell migration assay. The series is classed as cell-based, human. The note with it: Homo sapiens, HUVEC; 10 μM, 0.3 nM VEGF. The procedure:
Figure 5 Cell migration on VEGF-mediated HUVECs. The percentage of HUVEC migration was analyzed using Prism Version 6 (GraphPad). (A–T) VEGF was used as a positive control with 100% HUVEC migration. All peptides were tested at concentrations ranging from 0.001–50 μM except for cilengitide and octreotide, which were tested in 10-fold dilutions from 10 μM. Peptides were added in the presence of 0.3 nM VEGF (bottom chamber). Data are shown as mean ± SD (n ≥ 3). Data were normalized to the mean VEGF control. P-values are represented as follows: ****p ≤ 0.0001, ***p ≤ 0.001, **p ≤ 0.01, and *p ≤ 0.05.
A cell migration assay was performed as described by Chan et al.[45] HUVECs between passages three and ten were used. Briefly, initial peptide concentrations of 10–500 μM were prepared for all peptides except SFTI-SST-01, MCo-SST-01, SFTI-SST-02, MCo-SST-02, SFTI-PEDF, MCo-PEDF (0.01–500 μM), cilengitide, octreotide, and MCoAA-02 (1 × 10^−7 M–100 μM). To the apical well, 100 μL of 1 × 10^5 cells/well were seeded and 600 μL of medium supplemented with or without 0.3 nM VEGF (Sigma, catalogue no. V7259) was added to the basolateral well. The well containing cells with 0.1% FBS/EGM-2 basal medium was used as a negative control, and the well containing cells with 0.3 nM VEGF was used as a positive control. All peptides were stimulated with 0.3 nM VEGF. Experiments were done in triplicate. […]

Series [6] in a line: Peptide stability assay in human serum. The note with it: for stability in human serum over 24 h: RP-HPLC peak height at 215 nm. The procedure: Figure 6 Chorionallantoic membrane and stability assays. (A) Comparison of blood vessel count of the linear and grafted peptides. Error bars indicate ± SD (n ≥ 6). […] A one-way ANOVA with Dunnett’s post-test using a multiple comparison test was used for statistical analysis. […] All peptides were compared to 0.3 nM VEGF (highlighted in grey), which is represented as 100% blood vessel growth. […] VEGF was used as the positive control, and octreotide and cilengitide as the negative controls. All images were taken with an original magnification of x16 on an Olympus SZX12 dissecting microscope with a light box. DP capture and DP manager software packages were used during image acquisition. (C) This graph illustrates the percentage of peptide remaining over 24 h in the serum stability assay. […] All data are represented as mean ± SD and were recorded in triplicate. Peptides labeled with an asterisk (*) were tested using the same method except with an additional step – dissolving the centrifuged pellet with 8 M guanidinium chloride before RP-HPLC analysis.
The overall procedures used to assess peptide stability are based on those described previously by Chan et al.[18] and Ji et al.[19]. A peptide concentration of 300 μM was used, and time points taken at 0, 2, 4, 8, 16, and 24 h. The stability of sunitinib was also examined using this method, except an additional step was added after the final centrifugation step, whereby the pellet was dissolved in 8 M guanidine hydrochloride (300 μL) prior to analysis with RP-HPLC; this additional step was adapted from Ji et al.[19]. Supernantants were analyzed on an Agilent RP-HPLC using a linear 1%/min gradient of 0–50% solvent B with a 0.3 mL/min Phenomenex column. Peak height was used for integration of data at 215 nm and each experiment was performed in triplicate.

The mark [7] stands for this setting: read-out: IC50 ± S.D., 48 hours, HT-29, cell proliferation inhibition, MTT, 48-h incubation, 1.5 × 10^3 cells/well, triplicate, mean ± SD.
Where [8] appears, read: read-out: IC50 ± S.D., 48 hours, HUVEC, cell proliferation inhibition, MTT, 48-h incubation, 1.5 × 10^3 cells/well, triplicate, mean ± SD.
[9] abbreviates: read-out: IC50 ± S.D., 48 hours, MCF-7, cell proliferation inhibition, MTT, 48-h incubation, 1.5 × 10^3 cells/well, triplicate, mean ± SD.
The mark [10] stands for this setting: read-out: IC50 ± S.D., 48 hours, PC3, cell proliferation inhibition, MTT, 48-h incubation, 1.5 × 10^3 cells/well, triplicate, mean ± SD.
The mark [11] stands for this setting: human serum, 300 μM, 24 h, triplicate.

Like-named read-outs stand apart in the source and are kept apart here. Bridge positions count the residues as written; N and C are the ends. Square brackets hold non-standard residues; d marks the D form. Peptide text beside a SMILES is read from it.

Turning to `CCN(CC)CCNC(=O)c1c(C)[nH]c(/C=C2\C(=O)Nc3ccc(F)cc32)c1C` [sunitinib, Sunitinib malate, reference compound], the IC50 in series [1] (Homo sapiens, HT-29, 48 h, read-out: IC50 ± S.D., 48 hours, HT-29) is 1.43 ± 0.24 µM; in series [2] (Homo sapiens, HUVEC, 48 h, read-out: IC50 ± S.D., 48 hours, HUVEC), 19.1 ± 0.46 µM; in series [3] (Homo sapiens, MCF7, 48 h, read-out: IC50 ± S.D., 48 hours, MCF-7), 17.07 ± 0.11 µM; in series [4] (Homo sapiens, PC-3, 48 h, read-out: IC50 ± S.D., 48 hours, PC3), 16.2 ± 0.26 µM. The inhibition at 10 µM in series [5] came out at 100%.

`CC[C@H](C)[C@@H]1NC(=O)[C@@H]2CSSC[C@@H]3NC(=O)CNC(=O)[C@H](Cc4ccccc4)NC(=O)[C@@H]4CCCN4C(=O)[C@H](CCC(N)=O)NC(=O)[C@H](CC(N)=O)NC(=O)[C@H](CC(C)C)NC(=O)[C@H](Cc4c[nH]cn4)NC(=O)[C@H](Cc4ccc(O)cc4)NC(=O)CNC(=O)[C@@H]4CSSC[C@H](NC(=O)[C@H](CC(=O)O)NC(=O)[C@H](CO)NC(=O)[C@H](CC(=O)O)NC(=O)[C@H](CCCNC(=N)N)NC(=O)[C@H](CCCNC(=N)N)NC(=O)[C@H](CSSC[C@H](NC1=O)C(=O)N[C@@H](CCCNC(=N)N)C(=O)N[C@@H](Cc1ccc(O)cc1)C(=O)N[C@H](Cc1c[nH]c5ccccc15)C(=O)N[C@@H](CCCCN)C(=O)N[C@@H](C(C)C)C(=O)N4)NC(=O)[C@H](CCCCN)NC(=O)[C@H](CCCCN)NC(=O)[C@H](CC(C)C)NC(=O)[C@H]([C@@H](C)CC)NC(=O)[C@H](CCCCN)NC(=O)[C@@H]1CCCN1C3=O)C(=O)N1CCC[C@H]1C(=O)NCC(=O)N[C@@H](C)C(=O)N2` [MCoAA-02] (cyclo(ACICRY[dW]KVCGYHLNQPFGCPKILKKCRRDSDCPG); disulfide 2-20, 4-27, 10-33): the IC50 in series [1] (setting [7]) is 19.75 ± 0.07 µM; in series [2] (setting [8]) it was 27.06 ± 0.06 µM; in series [3] (setting [9]) it was above 100 µM; in series [4] (setting [10]), 35.44 ± 0.13 µM. Besides, the “stability in human serum over 24 h” value in series [6] (setting [11]) is listed as “stable”. Besides, the “percentage remaining in human serum at 24 h, excess over sunitinib” value in series [6] (human serum, 300 μM, 24 h, pellet dissolved in 8 M guanidine hydrochloride, RP-HPLC 215 nm, triplicate) was “approximately 20%”. In series [6] (human, serum), this molecule returned a fraction remaining at 24 h, 300 μM above 75%.

For the molecule `CC(C)[C@H](NC(=O)[C@H](CCCCN)NC(=O)[C@@H](Cc1c[nH]c2ccccc12)NC(=O)[C@@H](N)Cc1ccc(O)cc1)C(=O)O` [SST-01, reference compound] (H-Y[dW]KV-OH; N-terminus assumed), the IC50 in series [1] (4 h) was above 100 µM; in series [2] (4 h), 57.54 ± 0.04 µM; in series [3] (4 h), above 100 µM; in series [4] (4 h) it was above 100 µM. Moreover, the “stability in human serum over 24 h” value in series [6] (setting [11]) is “more stable than PEDF”.

As for `CC[C@H](C)[C@@H]1NC(=O)[C@@H]2CSSC[C@@H]3NC(=O)[C@H](Cc4c[nH]c5ccccc45)NC(=O)[C@H]([C@@H](C)O)NC(=O)[C@H](CCCCN)NC(=O)[C@@H](Cc4c[nH]c5ccccc45)NC(=O)[C@H](Cc4ccccc4)NC(=O)[C@H](CCCNC(=N)N)NC(=O)[C@@H]4CSSC[C@H](NC(=O)[C@H](CC(=O)O)NC(=O)[C@H](CO)NC(=O)[C@H](CC(=O)O)NC(=O)[C@H](CCCNC(=N)N)NC(=O)[C@H](CCCNC(=N)N)NC(=O)[C@H](CSSC[C@H](NC1=O)C(=O)N[C@@H](CCCNC(=N)N)C(=O)NCC(=O)N[C@@H](CC(N)=O)C(=O)NCC(=O)N[C@@H](Cc1ccc(O)cc1)C(=O)N4)NC(=O)[C@H](CCCCN)NC(=O)[C@H](CCCCN)NC(=O)[C@H](CC(C)C)NC(=O)[C@H]([C@@H](C)CC)NC(=O)[C@H](CCCCN)NC(=O)[C@@H]1CCCN1C3=O)C(=O)N1CCC[C@H]1C(=O)NCC(=O)N[C@@H](C)C(=O)N2` [MCo-SST-02] (cyclo(ACICRGNGYCRF[dW]KTWCPKILKKCRRDSDCPG); disulfide 2-17, 4-24, 10-30), the IC50 in series [1] (setting [7]) is 58.89 ± 0.09 µM; in series [2] (setting [8]) it was above 100 µM; in series [3] (setting [9]) it was 70.61 ± 0.11 µM; in series [4] (setting [10]) it was 83.55 ± 0.2 µM.

Regarding `CC[C@H](C)[C@@H]1NC(=O)[C@@H]2CSSC[C@@H]3NC(=O)[C@H](Cc4ccccc4)NC(=O)[C@@H]4CCCN4C(=O)[C@H](CCC(N)=O)NC(=O)[C@H](CC(N)=O)NC(=O)[C@H](CC(C)C)NC(=O)[C@H](Cc4c[nH]cn4)NC(=O)[C@H](Cc4ccc(O)cc4)NC(=O)[C@@H]4CSSC[C@H](NC(=O)[C@H](CC(=O)O)NC(=O)[C@H](CO)NC(=O)[C@H](CC(=O)O)NC(=O)[C@H](CCCNC(=N)N)NC(=O)[C@H](CCCNC(=N)N)NC(=O)[C@H](CSSC[C@H](NC1=O)C(=O)N[C@@H](CCCNC(=N)N)C(=O)NCC(=O)N[C@@H](CC(N)=O)C(=O)NCC(=O)N[C@@H](Cc1ccc(O)cc1)C(=O)N4)NC(=O)[C@H](CCCCN)NC(=O)[C@H](CCCCN)NC(=O)[C@H](CC(C)C)NC(=O)[C@H]([C@@H](C)CC)NC(=O)[C@H](CCCCN)NC(=O)[C@@H]1CCCN1C3=O)C(=O)N1CCC[C@H]1C(=O)NCC(=O)N[C@@H](C)C(=O)N2` [MCo-PEDF] (cyclo(ACICRGNGYCYHLNQPFCPKILKKCRRDSDCPG); disulfide 2-18, 4-25, 10-31), the IC50 stood at 35.22 ± 0.08 µM in series [1] (setting [7]), 50.16 ± 0.15 µM in series [2] (setting [8]), 53.44 ± 0.14 µM in series [3] (setting [9]) and 39.11 ± 0.07 µM in series [4] (setting [10]).
